Test results taken from ChEMBL document CHEMBL4507303, “Data for DCP probe TP-004” (2021).

Key:
[1] = target: Macrophage colony-stimulating factor 1 receptor (Homo sapiens) (UniProt P07333); conditions: Compound concentration 1000.0 nM
[2] = target: Glycogen synthase kinase-3 beta (Homo sapiens) (UniProt P49841); conditions: Compound concentration 1000.0 nM
[3] = target: Receptor-interacting serine/threonine-protein kinase 4 (Homo sapiens) (UniProt P57078); conditions: Compound concentration 1000.0 nM
[4] = system: Phosphatidylinositol 4,5-bisphosphate 3-kinase catalytic subunit alpha isoform (Homo sapiens), P42336 [I800L]; conditions: Compound concentration 1000.0 nM
[5] = target: Calcium/calmodulin-dependent protein kinase type II subunit gamma (Homo sapiens) (UniProt Q13555); conditions: Compound concentration 1000.0 nM
[6] = target: 3-phosphoinositide-dependent protein kinase 1 (Homo sapiens) (UniProt O15530); conditions: Compound concentration 1000.0 nM
[7] = target: Calcium/calmodulin-dependent protein kinase type 1 (Homo sapiens) (UniProt Q14012); conditions: Compound concentration 1000.0 nM
[8] = target: Serine/threonine-protein kinase Nek6 (Homo sapiens) (UniProt Q9HC98); conditions: Compound concentration 1000.0 nM
[9] = target: Ephrin type-A receptor 2 (Homo sapiens) (UniProt P29317); conditions: Compound concentration 1000.0 nM
[10] = target: Interleukin-1 receptor-associated kinase 4 (Homo sapiens) (UniProt Q9NWZ3); conditions: Compound concentration 1000.0 nM
[11] = target: Calcium/calmodulin-dependent protein kinase type 1D (Homo sapiens) (UniProt Q8IU85); conditions: Compound concentration 1000.0 nM
[12] = target: Ribosomal protein S6 kinase alpha-4 (Homo sapiens) (UniProt O75676); conditions: Compound concentration 1000.0 nM
[13] = target: Serine/threonine-protein kinase D1 (Homo sapiens) (UniProt Q15139); conditions: Compound concentration 1000.0 nM
[14] = target: 5-hydroxytryptamine receptor 1B (Homo sapiens) (UniProt P28222); conditions: Compound concentration 10.0 uM
[15] = target: RAC-beta serine/threonine-protein kinase (Homo sapiens) (UniProt P31751); conditions: Compound concentration 1000.0 nM
[16] = target: Mast/stem cell growth factor receptor Kit (Homo sapiens) (UniProt P10721); conditions: Compound concentration 1000.0 nM
[17] = target: Ephrin type-A receptor 1 (Homo sapiens) (UniProt P21709); conditions: Compound concentration 1000.0 nM
[18] = system: Receptor-type tyrosine-protein kinase FLT3 (Homo sapiens), P36888 [D835H]; conditions: Compound concentration 1000.0 nM
[19] = target: Activin receptor type-1-like (Homo sapiens) (UniProt P37023); conditions: Compound concentration 1000.0 nM
[20] = target: Protein kinase C delta type (Homo sapiens) (UniProt Q05655); conditions: Compound concentration 1000.0 nM
[21] = target: Non-receptor tyrosine-protein kinase TYK2 (Homo sapiens) (UniProt P29597); conditions: Compound concentration 1000.0 nM
[22] = target: Tyrosine-protein kinase Fyn (Homo sapiens) (UniProt P06241); conditions: Compound concentration 1000.0 nM
[23] = system: Phosphatidylinositol 4,5-bisphosphate 3-kinase catalytic subunit alpha isoform (Homo sapiens), P42336 [E545A]; conditions: Compound concentration 1000.0 nM
[24] = system: Receptor-type tyrosine-protein kinase FLT3 (Homo sapiens), P36888 [N841I]; conditions: Compound concentration 1000.0 nM
[25] = system: Phosphatidylinositol 4,5-bisphosphate 3-kinase catalytic subunit alpha isoform (Homo sapiens), P42336 [E545K]; conditions: Compound concentration 1000.0 nM
[26] = target: Sodium-dependent noradrenaline transporter (Homo sapiens) (UniProt P23975); conditions: Compound concentration 10.0 uM
[27] = target: Tyrosine-protein kinase Srms (Homo sapiens) (UniProt Q9H3Y6); conditions: Compound concentration 1000.0 nM
[28] = target: Histamine H1 receptor (Homo sapiens) (UniProt P35367); conditions: Compound concentration 10.0 uM
[29] = system: Epidermal growth factor receptor (Homo sapiens), P00533 [UNDEFINED MUTATION]; conditions: Compound concentration 1000.0 nM
[30] = target: Epithelial discoidin domain-containing receptor 1 (Homo sapiens) (UniProt Q08345); conditions: Compound concentration 1000.0 nM
[31] = target: Cyclin-dependent kinase-like 3 (Homo sapiens) (UniProt Q8IVW4); conditions: Compound concentration 1000.0 nM
[32] = system: Tyrosine-protein kinase ABL1 (Homo sapiens), P00519 [E255K]; conditions: Compound concentration 1000.0 nM
[33] = target: Cyclin-dependent kinase 4 (Homo sapiens) (UniProt P11802); conditions: Compound concentration 1000.0 nM
[34] = target: Tyrosine-protein kinase Fgr (Homo sapiens) (UniProt P09769); conditions: Compound concentration 1000.0 nM
[35] = target: Serine/threonine-protein kinase pim-1 (Homo sapiens) (UniProt P11309); conditions: Compound concentration 1000.0 nM
[36] = target: MAP kinase-activated protein kinase 5 (Homo sapiens) (UniProt Q8IW41); conditions: Compound concentration 1000.0 nM
[37] = target: Discoidin domain-containing receptor 2 (Homo sapiens) (UniProt Q16832); conditions: Compound concentration 1000.0 nM
[38] = target: Serine/threonine-protein kinase B-raf (Homo sapiens) (UniProt P15056); conditions: Compound concentration 1000.0 nM
[39] = system: Tyrosine-protein kinase ABL1 (Homo sapiens), P00519 [T315I]; conditions: Compound concentration 1000.0 nM
[40] = target: Casein kinase II subunit alpha' (Homo sapiens) (UniProt P19784); conditions: Compound concentration 1000.0 nM
[41] = target: Dual specificity protein kinase CLK1 (Homo sapiens) (UniProt P49759); conditions: Compound concentration 1000.0 nM
[42] = target: Mitogen-activated protein kinase 9 (Homo sapiens) (UniProt P45984); conditions: Compound concentration 1000.0 nM
[43] = target: Death-associated protein kinase 2 (Homo sapiens) (UniProt Q9UIK4); conditions: Compound concentration 1000.0 nM
[44] = target: 5'-AMP-activated protein kinase catalytic subunit alpha-2 (Homo sapiens) (UniProt P54646); conditions: Compound concentration 1000.0 nM
[45] = target: Serine/threonine-protein kinase MARK2 (Homo sapiens) (UniProt Q7KZI7); conditions: Compound concentration 1000.0 nM

Sequence of 5'-AMP-activated protein kinase catalytic subunit alpha-2 (Homo sapiens) (P54646 whole entry, looked up): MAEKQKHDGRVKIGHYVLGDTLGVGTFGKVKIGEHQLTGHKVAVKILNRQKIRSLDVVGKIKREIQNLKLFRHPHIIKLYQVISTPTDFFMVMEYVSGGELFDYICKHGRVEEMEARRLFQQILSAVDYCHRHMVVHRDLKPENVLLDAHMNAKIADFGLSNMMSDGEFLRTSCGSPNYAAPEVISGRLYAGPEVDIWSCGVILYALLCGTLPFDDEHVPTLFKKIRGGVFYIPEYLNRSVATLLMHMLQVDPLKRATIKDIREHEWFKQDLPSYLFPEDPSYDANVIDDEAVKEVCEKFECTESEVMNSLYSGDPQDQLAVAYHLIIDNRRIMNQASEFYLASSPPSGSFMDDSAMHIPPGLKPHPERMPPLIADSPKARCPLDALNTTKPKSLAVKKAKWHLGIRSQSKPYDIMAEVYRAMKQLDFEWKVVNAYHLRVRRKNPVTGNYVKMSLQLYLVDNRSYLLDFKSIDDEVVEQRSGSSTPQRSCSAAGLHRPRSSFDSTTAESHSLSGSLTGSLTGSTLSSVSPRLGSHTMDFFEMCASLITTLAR
Sequence of Serine/threonine-protein kinase B-raf (Homo sapiens) (P15056 whole entry): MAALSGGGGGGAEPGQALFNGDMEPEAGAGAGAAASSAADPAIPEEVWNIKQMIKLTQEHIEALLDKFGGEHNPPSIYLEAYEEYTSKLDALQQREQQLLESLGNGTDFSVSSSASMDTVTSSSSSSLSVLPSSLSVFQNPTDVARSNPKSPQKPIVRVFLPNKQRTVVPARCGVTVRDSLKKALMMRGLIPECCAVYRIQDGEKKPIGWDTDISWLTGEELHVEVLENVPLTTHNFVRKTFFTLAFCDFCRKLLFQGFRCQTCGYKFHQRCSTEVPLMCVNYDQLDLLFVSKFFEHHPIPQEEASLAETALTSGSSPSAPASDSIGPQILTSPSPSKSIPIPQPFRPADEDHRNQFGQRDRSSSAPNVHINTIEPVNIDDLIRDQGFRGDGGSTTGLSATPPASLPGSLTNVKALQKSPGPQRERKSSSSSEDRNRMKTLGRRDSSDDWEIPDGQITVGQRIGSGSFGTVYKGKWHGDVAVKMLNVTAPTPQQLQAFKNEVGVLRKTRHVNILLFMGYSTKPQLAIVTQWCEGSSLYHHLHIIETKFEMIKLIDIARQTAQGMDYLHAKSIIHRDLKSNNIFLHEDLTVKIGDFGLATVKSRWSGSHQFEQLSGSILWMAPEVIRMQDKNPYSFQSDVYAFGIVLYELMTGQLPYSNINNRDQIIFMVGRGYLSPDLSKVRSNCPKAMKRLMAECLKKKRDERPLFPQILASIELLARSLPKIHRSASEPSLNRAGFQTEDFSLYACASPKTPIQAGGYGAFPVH
Sequence of Tyrosine-protein kinase Fyn (Homo sapiens) (P06241 2-537 limits assumed): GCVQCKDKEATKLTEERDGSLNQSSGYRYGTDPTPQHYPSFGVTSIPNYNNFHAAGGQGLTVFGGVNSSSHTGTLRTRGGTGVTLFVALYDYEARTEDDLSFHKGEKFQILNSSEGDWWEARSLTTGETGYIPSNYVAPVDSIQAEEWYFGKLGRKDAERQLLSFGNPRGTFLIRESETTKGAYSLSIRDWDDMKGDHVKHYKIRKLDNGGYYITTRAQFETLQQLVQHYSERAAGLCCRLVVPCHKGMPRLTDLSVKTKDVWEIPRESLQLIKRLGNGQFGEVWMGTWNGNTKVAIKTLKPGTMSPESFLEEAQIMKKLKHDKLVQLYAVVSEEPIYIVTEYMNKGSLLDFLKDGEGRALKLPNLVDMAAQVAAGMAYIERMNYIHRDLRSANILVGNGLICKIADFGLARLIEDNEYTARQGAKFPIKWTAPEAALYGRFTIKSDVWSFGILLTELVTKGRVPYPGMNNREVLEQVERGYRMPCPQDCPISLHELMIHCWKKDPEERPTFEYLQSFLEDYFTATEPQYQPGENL
Sequence of Tyrosine-protein kinase Fgr (Homo sapiens) (P09769 2-529 limits assumed): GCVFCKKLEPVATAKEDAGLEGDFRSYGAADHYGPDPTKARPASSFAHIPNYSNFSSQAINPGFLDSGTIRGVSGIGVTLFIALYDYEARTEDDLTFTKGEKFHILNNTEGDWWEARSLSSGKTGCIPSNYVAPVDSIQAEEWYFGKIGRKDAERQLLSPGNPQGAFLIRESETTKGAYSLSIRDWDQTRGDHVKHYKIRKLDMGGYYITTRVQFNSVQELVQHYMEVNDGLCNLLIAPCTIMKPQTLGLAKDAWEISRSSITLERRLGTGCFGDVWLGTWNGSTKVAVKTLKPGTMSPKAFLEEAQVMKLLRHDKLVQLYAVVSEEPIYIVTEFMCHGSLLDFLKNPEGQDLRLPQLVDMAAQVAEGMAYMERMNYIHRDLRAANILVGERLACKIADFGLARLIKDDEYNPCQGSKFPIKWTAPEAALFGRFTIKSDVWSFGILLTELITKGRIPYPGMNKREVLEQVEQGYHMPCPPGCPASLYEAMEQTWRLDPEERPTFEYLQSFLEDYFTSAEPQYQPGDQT
Sequence of Tyrosine-protein kinase Srms (Homo sapiens) (Q9H3Y6 whole entry): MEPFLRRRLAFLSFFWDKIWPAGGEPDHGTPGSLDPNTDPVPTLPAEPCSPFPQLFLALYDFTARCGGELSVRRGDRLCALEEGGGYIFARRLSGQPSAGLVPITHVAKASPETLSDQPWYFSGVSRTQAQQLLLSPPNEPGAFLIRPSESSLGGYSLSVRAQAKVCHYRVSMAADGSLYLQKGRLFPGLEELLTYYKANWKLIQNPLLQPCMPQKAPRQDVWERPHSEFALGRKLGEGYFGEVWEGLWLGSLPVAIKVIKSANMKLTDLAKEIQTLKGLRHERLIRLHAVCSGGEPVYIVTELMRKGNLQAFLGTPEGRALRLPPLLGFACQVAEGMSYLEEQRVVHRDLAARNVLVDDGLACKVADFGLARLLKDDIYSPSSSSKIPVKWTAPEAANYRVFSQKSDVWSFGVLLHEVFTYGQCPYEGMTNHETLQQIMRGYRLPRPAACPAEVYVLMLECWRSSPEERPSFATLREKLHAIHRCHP
Sequence of Interleukin-1 receptor-associated kinase 4 (Homo sapiens) (Q9NWZ3 whole entry): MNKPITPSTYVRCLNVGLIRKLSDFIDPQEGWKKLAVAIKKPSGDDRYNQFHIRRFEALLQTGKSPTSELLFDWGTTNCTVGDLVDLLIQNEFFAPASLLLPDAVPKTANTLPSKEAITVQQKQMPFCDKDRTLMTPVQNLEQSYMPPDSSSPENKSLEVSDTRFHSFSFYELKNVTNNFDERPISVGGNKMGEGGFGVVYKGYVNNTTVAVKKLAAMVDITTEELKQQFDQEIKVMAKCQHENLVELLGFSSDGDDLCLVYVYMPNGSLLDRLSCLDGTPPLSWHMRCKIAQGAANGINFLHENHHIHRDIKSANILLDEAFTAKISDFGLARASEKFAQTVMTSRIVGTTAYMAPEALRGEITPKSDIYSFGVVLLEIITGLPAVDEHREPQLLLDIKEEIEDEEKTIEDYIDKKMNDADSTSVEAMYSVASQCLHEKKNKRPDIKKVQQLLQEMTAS
Sequence of Epidermal growth factor receptor (Homo sapiens), P00533 [UNDEFINED MUTATION] (P00533 whole entry, looked up, change not shown, the tested form may be a part): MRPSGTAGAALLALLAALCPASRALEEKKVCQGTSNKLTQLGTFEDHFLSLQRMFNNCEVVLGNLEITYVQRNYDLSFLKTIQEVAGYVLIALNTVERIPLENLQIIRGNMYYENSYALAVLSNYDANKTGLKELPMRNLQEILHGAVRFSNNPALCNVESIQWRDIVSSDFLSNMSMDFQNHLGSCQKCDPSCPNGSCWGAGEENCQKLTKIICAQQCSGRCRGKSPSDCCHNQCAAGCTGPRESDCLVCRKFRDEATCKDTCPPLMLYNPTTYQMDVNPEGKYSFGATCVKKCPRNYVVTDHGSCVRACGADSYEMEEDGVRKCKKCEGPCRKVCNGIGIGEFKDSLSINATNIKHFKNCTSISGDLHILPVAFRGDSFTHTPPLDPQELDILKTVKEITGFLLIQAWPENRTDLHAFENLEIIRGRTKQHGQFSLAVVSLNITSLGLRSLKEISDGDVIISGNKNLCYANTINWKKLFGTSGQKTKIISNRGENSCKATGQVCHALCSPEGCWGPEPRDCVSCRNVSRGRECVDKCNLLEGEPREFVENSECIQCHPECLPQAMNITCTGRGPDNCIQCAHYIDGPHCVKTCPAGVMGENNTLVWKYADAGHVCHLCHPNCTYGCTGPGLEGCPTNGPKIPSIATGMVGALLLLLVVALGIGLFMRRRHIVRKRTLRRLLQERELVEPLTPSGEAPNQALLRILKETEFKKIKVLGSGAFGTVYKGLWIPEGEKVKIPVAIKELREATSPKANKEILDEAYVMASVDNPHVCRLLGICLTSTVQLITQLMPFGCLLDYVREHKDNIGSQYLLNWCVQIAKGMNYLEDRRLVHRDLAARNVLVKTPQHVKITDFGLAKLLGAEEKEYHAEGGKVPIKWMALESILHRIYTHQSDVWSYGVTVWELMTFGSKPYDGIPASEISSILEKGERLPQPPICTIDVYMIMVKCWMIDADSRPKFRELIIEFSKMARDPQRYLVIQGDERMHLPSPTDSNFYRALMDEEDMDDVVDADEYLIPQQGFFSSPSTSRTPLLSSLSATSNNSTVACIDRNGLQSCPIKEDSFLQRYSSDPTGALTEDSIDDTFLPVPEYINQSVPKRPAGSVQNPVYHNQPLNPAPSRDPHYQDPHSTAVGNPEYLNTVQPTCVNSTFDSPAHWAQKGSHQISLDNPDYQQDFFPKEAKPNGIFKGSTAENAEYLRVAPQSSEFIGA
Sequence of Serine/threonine-protein kinase pim-1 (Homo sapiens) (P11309 whole entry, looked up): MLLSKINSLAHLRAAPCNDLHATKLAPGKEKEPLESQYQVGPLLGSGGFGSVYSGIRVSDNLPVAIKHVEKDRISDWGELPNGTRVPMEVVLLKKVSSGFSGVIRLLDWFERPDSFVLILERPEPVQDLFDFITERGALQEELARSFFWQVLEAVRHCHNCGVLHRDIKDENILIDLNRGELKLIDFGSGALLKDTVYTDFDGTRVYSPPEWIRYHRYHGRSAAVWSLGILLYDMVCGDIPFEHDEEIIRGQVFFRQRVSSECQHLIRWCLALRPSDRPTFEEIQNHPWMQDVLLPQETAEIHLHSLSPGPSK

Cc1nc(N2CC[C@@H](O)C2)ncc1-c1cc(C(F)(F)F)cc2[nH]ncc12 [TP-004]
inactive: residual activity [1] 82% | residual activity [2] 65% | residual activity [3] 60% | residual activity [4] 66% | residual activity [5] 100% | residual activity [6] 100% | residual activity [7] 100% | residual activity [8] 89% | residual activity [9] 100% | residual activity [10] 94% | residual activity [11] 100% | residual activity [12] 84% | residual activity [13] 75% | inhibition [14] 22.3% | residual activity [15] 87% | residual activity [16] 67% | residual activity [17] 85% | residual activity [18] 100% | residual activity [19] 100% | residual activity [20] 94% | residual activity [21] 58% | residual activity [22] 100% | residual activity [23] 97% | residual activity [24] 88% | residual activity [25] 56% | inhibition [26] 36.9% | residual activity [27] 81% | inhibition [28] 0.239% | residual activity [29] 64% | residual activity [30] 100% | residual activity [31] 100% | residual activity [32] 77% | residual activity [33] 71% | residual activity [34] 100% | residual activity [35] 100% | residual activity [36] 68% | residual activity [37] 75% | residual activity [38] 73% | residual activity [39] 69% | residual activity [40] 91% | residual activity [41] 87% | residual activity [42] 61% | residual activity [43] 100% | residual activity [44] 100% | residual activity [45] 100%
